Activity calls are given as the source filed them. The rule behind the calls is not given here.
Key:
[1] = species on record: Rattus norvegicus; experiment: Inhibition of rat liver MAO assessed as release of 4-hydroxyquinoline from kynuramine at 3.6 x 10^-6 M
[2] = species on record: Rattus norvegicus; experiment: Inhibition of rat liver MAO assessed as release of 4-hydroxyquinoline from kynuramine at 3.6 x 10^-6 M preincubated for 10 mins
[3] = tested on: Mus musculus; experiment: Induction of gross behavioral activity in Swiss albino mouse assessed as increase in clonic seizure of hind quarters at 25 mg/kg, ip in presence of 2 to 25 mg/kg of methysergide; format: functional, organism-based
[4] = tested on: Mus musculus; experiment: Induction of gross behavioral activity in ip dosed Swiss albino mouse assessed as minimum effective dose; format: functional; conditions: read-out: MED
[5] = tested on: Mus musculus; experiment: Induction of gross behavioral activity in 3 mg/kg of cyprohepatidine treated Swiss albino mouse assessed as increase in clonic seizure of hind quarters at 25 mg/kg, ip treated 40 mins after cyprohepatidine administration; format: functional, organism-based
[6] = tested on: Mus musculus; experiment: Induction of gross behavioral activity in Swiss albino mouse assessed as increase in clonic seizure of hind quarters at 25 mg/kg, ip in presence of 3 mg/kg of cyprohepatidine; format: functional, organism-based
[7] = tested on: Mus musculus; experiment: Induction of gross behavioral activity in Swiss albino mouse assessed as decrease in motor activity with some clonic seizure at 50 mg/kg, ip after 25 to 30 mins; format: functional, organism-based; set-up: dose 50 mg/kg
[8] = tested on: Mus musculus; experiment: Induction of gross behavioral activity in Swiss albino mouse assessed as increase in clonic seizure of hind quarters at 25 mg/kg, ip in presence of 5HT antagonist BOL; format: functional, organism-based; set-up: dose 25 mg/kg
[9] = tested on: Mus musculus; experiment: Induction of gross behavioral activity in Swiss albino mouse assessed as clonic seizure of hind quarters at 50 mg/kg, ip after 10 to 15 mins; format: functional, organism-based; set-up: dose 50 mg/kg

Structure (SMILES)	inhibition [1]	inhibition [2]	Activity [3]	minimal effective dose [4]	Activity [5]	Activity [6]	Activity [7]	Activity [8]	Activity [9]
C#CCN(C)Cc1ccccc1	45%	78%							
NCCc1c[nH]c2ccccc12 [TRYPTAMINE]			Active	< 25 mg/kg	inactive	Active	Active	inactive	Active
